From patent US4891319A, “Protection of proteins and the like” (Quadrant Bioresources Limited, priority 1985, dated 1990)

Columns and labels:
[1] = test system: Rh D antigen; test: titrated haemagglutination assay of dried human IgM anti-Rh D antibody; assay type: cell-based; settings: for % activity retained in HA titre: dried antibody, sugar at 5% final concentration
Text: (§1) They can then be stored at room temperature indefinitely.
3. Trehalose preserves 100% of the antibody activity. A test of five sugars all used at 5% final concentration in a titrated haemagglutination assay gave the following results.
(§2) An additional titration was done to establish whether there is an optimum concentration of trehalose for preservation. The antibodies tested were mouse monoclonal IgM anti A antibody, a mouse monoclonal IgM anti B antibody and a human monoclonal IgM anti Rh antibody used above. They were diluted to an appropriate starting concentration as follows: mouse anti A 1:10, mouse anti B 1:10, human anti Rh (to a final concentration of 20μg/ml). These were titrated 1:3 across a 96 well microtitre plate in Dulbecco's phosphate buffered saline (PBS) in a final volume of 50μl. To each horizontal 8 well row was added 50μl of trehalose at concentrations ranging from 10% w/v to 0.1% w/v. The wells were then dried at 37° overnight. Next day the wells were rehydrated with 100μl distilled water containing buffer sufficient to restore isotonicity. Then 50μl aliquots were transferred to a v-bottom microtitre plate and 25μl of 1% washed human red cells carrying the appropriate blood group antigens added and mixed. Haemagglutination titres were read after 2-3 hours at room temperature. […] With the anti Aantibody any trehalose concentration above 1% preserved maximal activity and with the anti B antibody any concentration above 0.5% preserved maximum activity.

[2] = test system: A blood group substance; test: titrated haemagglutination assay of dried mouse IgM anti A antibody; assay type: cell-based, human; settings: dried at 37° overnight
Method: as §1, §2

[3] = test system: fixed red cells; test: Drying of antigen- or antibody-coupled fixed red blood cells; assay type: cell-based; settings: dried in the presence of trehalose
Text: Upon rehydration the coupled, fixed red cells can be resuspended to form a perfect single cell suspension which then behaves as a fresh red cell suspension does in haemagglutination assays.

[4] = test system: rat IgG immunoglobulin; test: indirect agglutination titre of dried or fresh sheep antiserum K237; assay type: cell-based
Method: A sheep antiserum to rat IgG immunoglobulin (K237) was titrated in a 96 well flat bottom microtitre plate as 1:3 steps (25μl serum in 50μl PBS). 50μl of 5% w/v trehalose in D.W was then added and the plate dried at 37° in a warm room for 48 hr.
The wells were reconstituted with 100μl distilled water. 50μl of the contents of each well were transferred to v bottom microtitre plates, DA rate erythrocytes were washed ×3 in saline and sensitized by incubation for 2 hr at RT with tissue culture supernatant of the monoclonal antibody R3/13 HLK which is specific for the A^a class 1 transplantation antigen on DA erythrocytes. The red cells were then washed x3 in saline and resuspended at 1% v/v in PBS +1% BSA. The sensitized rat erythrocytes were added. At the same time fresh K237 serum was titrated as above as a positive non-dried control.
The capacity for the dried and fresh serum to cause indirect agglutination of the red cells sensitized by the rat antibody R3/13 was then read.

[5] = test system: R-phycoerythrin; test: Fluorescence of R-phycoerythrin after drying with or without trehalose; assay type: physicochemical, marine Rhodophyte; settings: trehalose-containing samples, stored in the dark for 10 months
Method: The phycobiliprotein R-phycoerythrin was purified from a marine Rhodophyte. This brilliantly fluorescent red protein was blotted onto nitrocellulose membrane or glass fibre filter paper in phosphate buffer with and without 10% w/v added trehalose and dried at room temperature.
R-phycoerythrin at 5 mg/ml was dried at 37° on glass fibre filter paper (Whatman GF/C), cellulose filter paper (Whatman No. 1) or on nitrocellulose membrane (Schleicher & Schull 0.45μ pore size) in the presence of 5% trehalose in solution and in its absence. In the absence of trehalose the spots of dried R-phycoerythrin changed colour to a purplish red and lost >90% of their fluorescence intensity.

[6] = test system: cellular organelles; settings: loss of bound water; cited from earlier work
[7] = test system: guinea pig serum complement; test: CH50 assay, preservation of dried serum complement; assay type: cell-based
Method: Guinea pig serum was prepared fresh and frozen in aliquots at -196° until use. As target cells, washed sheep erythrocytes (SRBC) which had been stored in Alsever's solution for up to 2 weeks were incubated with the bovine monoclonal anti-Forrsman antibody 94A1-AZA for 1 hr at 4° and then washed in complement fixation diluent (CFD). Freshly thawed guinea pig serum was diluted in CFD where required in flat bottom microtitre plate (NUNC, Denmark) and trehalose added at various concentrations. […] For the CH50 assay (P.J. Lachmann and M.J. Hobart in "Handbook of Experimental Immunology" ed. D.M. Weir, Blackwell 1978), dried or fresh complement was titrated out in a U bottom microtitre plate and sensitised SRBC added to a final concentration of 2%. […] The endpoint was measured as the cup in which 50% of the erythrocytes remained as a button.

[8] = test system: rat lymphocytes; test: Fluorescence microscopy of labelled rat lymphocytes; assay type: cell-based; settings: dried with 10% added trehalose
Text: Fluorescence microscopy using R-phycoerythrin as the fluorochrome was previously very inefficient because of fluorescence fading in aqueous mountants. This can be prevented by drying of the preparation and mounting in a non-polar mountant such as Gurr's Fluoromount, but drying destroys more than 90% of the fluorescence of R-phycoerythrin. This is prevented by drying in the presence of trehalose in the final buffer.
The anti CD4 monoclonal antibody W3/25 was coupled with biotin-linker-arm N-hydroxysuccinimide ester and used in saturating doses to label the T helper subset of rat lymphocytes. These labelled cells were then detected with a second stage staining using a streptavidin-R-phycoerythrin conjugate. After a final wash the cells were divided into four aliquots and one was examined in the FACS to illustrate correct labelling with these reagents. […] Smears were made and dried and then mounted in Fluoromount. The fourth aliquot was mounted wet in PBS. All three preparations were examined in a Zeiss photomicroscope II with Ploem optics.

[9] = test system: B blood group substance; test: titrated haemagglutination assay of dried mouse IgM anti B antibody; assay type: cell-based, human; settings: dried at 37° overnight
Method: as §1, §2

[10] = test system: alkaline phosphate from calf intestine; test: Preservation of dried alkaline phosphatase activity; assay type: biochemical; settings: dried at 37° with 5% trehalose, 4 weeks at room temperature
Method: The mammalian enzyme alkaline phosphate from calf intestine was serially diluted in phosphate buffered saline (PBS) and added to the wells of a NUNC Immunoplate. After overnight incubation to bind the enzyme to the plastic surface, the wells were washed, shaken free of liquid, and dried at 37° in the presence or absence of 5% trehalose in distilled water. […] At the end of this time the wells were rehydrated with distilled water and substrate added. A positive control consisted of fresh dilutions of the enzyme. The activity of one enzyme was measured by the standard test of […] p-nitrophenylphosphate and monitoring the optical density at 405 nm.

[11] = test system: haemoglobin; test: Spectral properties and gas exchange of dried haemoglobin; assay type: physicochemical; settings: oxy and carboxy forms dried in the presence of trehalose
Text: Many macromolecular functions require mobility of the macromolecule e.g. antibodies have to physically move into close proximity to their antigen in order for binding to occur through electrostatic and hydrophobic interactions. The same is true of enzymes binding their substrates. Minor molecular motion is also required for other macromolecular functions. Thus haemoglobin undergoes rotation and movement of certain amino acids during the reversible binding of oxygen and carbon dioxide. None of this molecular mobility is observed in the dry state.
In contrast, the fluorescence of R-phycoerythrin involves "movement" only on the sub atomic level. Absorption of light energy at low wavelengths e.g. (488 nm) causes electrons in the chromophores to shift to higher energy orbits. Fluorescence at longer wavelengths is due to the emission of photons when these electrons jump back to lower energy orbits. […] This method is therefore of great interest in the application of biological (and synthetic) macromolecules in new electronic applications. Examples include proton and electron pumping (such as is mediated, on exposure to light, by bacteriorhodopsin and rhodopsin). […]

[12] = molar basis; cited from earlier work
[13] = test system: horseradish peroxidase; test: Preservation of dried horseradish peroxidase activity; assay type: biochemical; settings: dried with or without trehalose; compared with alkaline phosphatase
[14] = test system: rat IgG; test: indirect haemagglutination titre of K237 antiserum dried on matrices and eluted; assay type: cell-based; settings: dried on Whatman No. 1 cellulose paper
Method: A number of different matrices were examined for use as a trehalose support. They include pure cellulose paper (Whatman No. 1 filter paper), glass fibre paper (What man GF/A and GF/C papers), polyurethane sponge foam and porous polyethylene sheet. These matrices were soaked in trehalose dissolved in distilled water at various concentrations from 10% down to 1% and dried at 37°. […] Various sera were applied to the paper and dried at 37°. After various periods of storage at 37+, samples were eluted with distilled water or normal saline; usually used in a volume 2-4 times that of the original serum sample so that their potency could be directly compared with fresh non-dried samples of the same sera.
K237, a sheep antiserum against rat IgG, was dried on to 10% trehalose-impregnated cellulose paper, glass fibre paper and porous polyethylene sheet and stored for 7 days at 37° C.
The paper or sheet was eluted with 4 volumes of normal saline and titrated in an indirect haemagllutination assay for its ability to agglutinate DA strain rat erythrocytes coated with a monoclonal antibody (JN2/85) against the class 1 antigens expressed on the erythrocyte membranes.
The same antiserum was then tested by drying on the Whatman No. 1 cellulose paper in the presence of various sugars and in the absence of sugar.

## OC[C@H]1O[C@H](O[C@H]2O[C@H](CO)[C@@H](O)[C@H](O)[C@H]2O)[C@H](O)[C@@H](O)[C@@H]1O [Trehalose, α-D-glucopyranosyl-α-D-glucopyranoside]
[1]
  % activity retained in HA titre: 100%
[1]; human antibody, 2.5% final trehalose, dried at 37° overnight
  maximum preservation of activity: 100%
[1]; human antibody, 5% final trehalose concentration
  change in titre: slight decrease in titre
[1]; human antibody, at the drying stage
  final concentration of trehalose at maximum preservation: 2.5%
[2]
  trehalose concentration preserving maximal activity: above 1%
[3]
  function of antibody or antigen coupled to fixed red cell membrane: completely preserves the function of the antibody or antigen
  preservation and resuspension of fixed red cells: completely preserves the fixed red cells themselves
[4]; Dried + Trehalose (5% w/v, 37°, 48 hr)
  Titre (cups): 7
[4]; dried with trehalose
  antibody activity of whole serum preserved: 100%
[5]
  fluorescence after storage: without loss of fluorescence
[6]
  protection of cellular organelles compared with other carbohydrates: significantly superior to other carbohydrates
[7]; 25% serum, trehalose 0.15M and above
  complement activity preserved: 100%
[7]; 50% normal serum, trehalose 0.22M and above
  complement activity preserved: 100%
[7]; dried with trehalose and reconstituted
  prevention of loss of complement activity: completely prevented
[7]; up to 0.5M, any concentration of serum
  inhibition by high concentrations of trehalose: not inhibitory
[8]
  brilliantly fluorescent cells: 75%
  fading of fluorescent cells: did not fade
[8]; several weeks
  fading of labelled cells on repeated examination: no detectable fading
[9]
  trehalose concentration preserving maximum activity: above 0.5%
[10]
  retention of enzyme activity: Full retention of activity

## haemoglobin
[11]
  spectral properties after drying: retain their spectral properties

## R Phycoerythrin
[12]
  brightness relative to fluorescein: 20 times

## horseradish peroxidase
[13]
  retention of enzyme activity: Identical results

## OC[C@H]1O[C@H](OC[C@H]2O[C@H](O[C@]3(CO)O[C@H](CO)[C@@H](O)[C@@H]3O)[C@H](O)[C@@H](O)[C@@H]2O)[C@H](O)[C@@H](O)[C@H]1O [raffinose, reference compound]
[1]
  % activity retained in HA titre: 3.7%
[14]
  difference from the untreated paper: No significant difference

## OC[C@H]1O[C@@](CO)(O[C@H]2O[C@H](CO)[C@@H](O)[C@H](O)[C@H]2O)[C@@H](O)[C@@H]1O [sucrose, reference compound]
[1]
  % activity retained in HA titre: 11.1%
[14]
  difference from the untreated paper: No significant difference

## OC[C@H]1O[C@H](O[C@H]2[C@H](O)[C@@H](O)C(O)O[C@@H]2CO)[C@H](O)[C@@H](O)[C@@H]1O (mixture of isomers) [maltose, reference compound]
[1]
  % activity retained in HA titre: 11.1%

## O=C[C@H](O)[C@@H](O)[C@H](O)[C@H](O)CO [glucose, reference compound]
[1]
  % activity retained in HA titre: 1.2%
